Three molecules from ChEMBL document CHEMBL1137248, “2-(3-Amino-3-deoxy-beta-D-xylofuranosyl)thiazole-4-carboxamide: a new tiazofurin analogue with potent antitumour activity” (Bioorg Med Chem Lett, 2006) can be followed below.

Type in all cases: cell-based
For one assay, the system named is K562. As to the kind of experiment: Cytotoxicity against human K562 cells after 24 hrs by MTT assay. To be noted: K562, 24 h. Background: Tetrazolium assays rely on reduction of a dye to a coloured formazan, in cell work by metabolically active cells.
The test system of the next assay is Jurkat. As to the kind of experiment: Cytotoxicity against Jurkat cells after 24 hrs by MTT assay. Conditions: Homo sapiens.
A further assay concerns MRC5. As to the kind of experiment: Cytotoxicity against MRC5 cells after 24 hrs by MTT assay. Conditions: Homo sapiens, MRC5, 24 h.
In a further assay the test system is HT-29. As to the kind of experiment: Cytotoxicity against HT29 cells after 24 hrs by MTT assay. To be noted: Homo sapiens, HT-29, 24 h.
The next assay relates to HeLa. As to the kind of experiment: Cytotoxicity against HeLa cells after 24 hrs by MTT assay. To be noted: Homo sapiens.

SMILES strings stand for the structures.

As for `NC(=O)c1csc([C@@H]2O[C@H](CO)[C@H](N)[C@H]2O)n1`, the IC50 – broadly, the concentration needed to halve the response being measured – with K562 is 52 nM; with Jurkat it was 60 nM; with MRC5 it was greater than 100000 nM; with HT-29 it was 37 nM; with HeLa, 280 nM.

For `CC(=O)N[C@@H]1[C@@H](O)[C@H](c2nc(C(N)=O)cs2)O[C@@H]1CO`, the IC50 is 95 nM in the assay with K562; 450 nM with Jurkat; 89700 nM with MRC5; 1000 nM with HT-29; greater than 100000 nM with HeLa.

Consider `NC(=O)c1csc([C@@H]2O[C@H](CO)[C@@H](O)[C@H]2O)n1` [TIAZOFURIN], for which the IC50 came out at 5290 nM in the assay with K562, 140 nM in the assay with Jurkat and 4760 nM with HeLa.
